Data on 22 compounds can be found in patent USRE47302E1 (ONYX THERAPEUTICS INC., priority 2013, dated 2019).

A short description of one series: Solubility pH 7. The note with it: pH 7, aqueous buffer.
The target of series [1] is T1, immunoproteasome subunit LMP7 (Homo sapiens, UniProt P28062).
T1 construct: Lysate from the human acute lymphoblastic leukemia cell line, MOLT-4; endogenous in cells; host or cells: MOLT-4
The experiment in a line: Proteasome active-site ELISA (ProCISE), LMP7, MOLT-4 lysate. It is filed as biochemical. A digest of the protocol:
(§1)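 MOLT-4 cell lysate treated 1 h at 25 °C with compound; probe-bound subunits denatured, pulled down on streptavidin beads and detected with subunit-specific antibodies plus HRP chemiluminescence.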

The target of series [2] is T2, proteasome subunit β5 (beta5) (Homo sapiens, UniProt P28074).
T2 construct: Lysate from the human acute lymphoblastic leukemia cell line, MOLT-4; endogenous in cells; host or cells: MOLT-4
The experiment in a line: Proteasome active-site ELISA (ProCISE), beta5, MOLT-4 lysate. As to conditions: MOLT4 lysate, human, 1 h continuous treatment, 25° C. It is filed as biochemical. A digest of the protocol: as §1
(ELISA stands for enzyme-linked immunosorbent assay.)

Series [3] addresses human 20S immunoproteasome (i20S) (Homo sapiens, UniProt P28062). Put plainly: 20S proteasome assay, chymotrypsin-like activity (succinyl-Leu-Leu-Val-Tyr-AMC), i20S. It is filed as biochemical. As to conditions: read-out: LLVY i20S Hu 1 h CONT: IC50, LLVY substrate, 1 h continuous. From the text:
Assay buffer consisted of TE buffer [20 mmol/L Tris (pH 8.0), 0.5 mmol/L EDTA] with (20S) or without (cell lysate) 0.03% SDS. Reactions were initiated by enzyme or lysate addition and monitored for AMC product formation at 27jC with a plate-based spectofluorometer (Tecan).

[4] abbreviates: MOLT4 lysate, 1 h continuous treatment, 25° C.
Where [5] appears, read: read-out: ProCISE LMP7 MOLT4 lysate Hu 1 h CONT: IC50, 1 h continuous treatment, 25° C.
The mark [6] stands for this setting: read-out: ProCISE beta5 MOLT4 lysate Hu 1 h CONT: IC50.

Each structure is given as a SMILES string. pIC50: −log10 of the molar value. ≈ marks a conversion by molar mass, not a printed value. Where two headings read alike, the source gives them in different places.

In general, solubility refers to the dissolved amount per volume that the medium holds. A higher solubility goes with a readily soluble substance. As a reminder, the pIC50 is the IC50 on a negative log10 scale, so that one unit is a factor of ten. In the series “Solubility pH 7”, `COc1ccc(C[C@H](NC(=O)[C@@H](NC(=O)CN2CCOCC2)C2COC2)C(=O)N[C@@H](CC2=CCCCC2)C(=O)[C@@]2(C)CO2)cc1` [Compound C-1138, (S)-N-((S)-3-(Cyclohex-1-en-1-yl)-1-((R)-2-methyloxiran-2-yl)-1-oxopropan-2-yl)-3-(4-methoxyphenyl)-2-((S)-2-(2-morpholinoacetamido)-2-(oxetan-3-yl)acetamido)propanamide] returned a solubility of 2350 µg/mL (≈ 3.75 mM). For the same compound, the results for the negative-log IC50 (pIC50) in series [1] (setting [4]) and in series [2] were 7.34 and 6.39, respectively.
On to `COc1ccc([C@@H](O)[C@H](NC(=O)[C@H](CO)NC(=O)CN2CCOCC2)C(=O)N[C@@H](CC2=CCCC2)C(=O)[C@@]2(C)CO2)cc1` [Compound C-1144, (2S,3R)-N-((S)-3-(cyclopent-1-en-1-yl)-1-((R)-2-methyloxiran-2-yl)-1-oxopropan-2-yl)-3-hydroxy-2-((S)-3-hydroxy-2-(2-morpholinoacetamido)propanamido)-3-(4-methoxyphenyl)propanamide], for which the solubility in “Solubility pH 7” was > 10000 µg/mL. Moreover, the negative-log IC50 (pIC50) in series [1] (setting [4]) was 7.70; in series [2] it was 6.57.
`C[C@H](NC(=O)CN1CCOCC1)C(=O)N[C@@H](Cc1ccccn1)C(=O)N[C@@H](Cc1ccccc1)C(=O)[C@@]1(C)CO1` [Compound C-1155] yielded a solubility in the series “Solubility pH 7” of 2090 µg/mL (≈ 3.79 mM). The pIC50 in series [3] was 6.60.
In the series “Solubility pH 7”, `COc1ccc(C[C@H](NC(=O)[C@@H](CO)NC(=O)CN2CCOCC2)C(=O)N[C@@H](Cc2ccccc2)C(=O)[C@@]2(C)CO2)cc1` [Compound C-1158] showed a solubility of 3030 µg/mL (≈ 5.08 mM). Moreover, the pIC50 in series [1] (setting [5]) is 6.79; in series [2] (setting [6]), 6.06.
The matching figures for `COc1ccc(C[C@H](NC(=O)[C@H](C)NC(=O)[C@H]2CCCN2C)C(=O)N[C@@H](Cc2ccccc2)C(=O)[C@@]2(C)CO2)cc1` [Compound C-1164]: 2670 µg/mL (≈ 4.72 mM), 7.09 and 6.24.
In “Solubility pH 7”, `COc1ccc(C[C@H](NC(=O)[C@H](C)NC(=O)[C@H]2CCCO2)C(=O)N[C@@H](Cc2ccccc2)C(=O)[C@@]2(C)CO2)cc1` [Compound C-1166, (R)-N-((S)-1-(((S)-3-(4-methoxyphenyl)-1-(((S)-1-((R)-2-methyloxiran-2-yl)-1-oxo-3-phenylpropan-2-yl)amino)-1-oxopropan-2-yl)amino)-1-oxopropan-2-yl)tetrahydrofuran-2-carboxamide] yielded a solubility of 536 µg/mL (≈ 0.971 mM). Moreover, the pIC50 in series [1] (setting [4]) is 6.44; in series [2], 6.02.
In the series “Solubility pH 7”, `COc1ccc(C[C@H](NC(=O)[C@H](C)NC(=O)[C@@H]2CCCO2)C(=O)N[C@@H](Cc2ccccc2)C(=O)[C@@]2(C)CO2)cc1` [Compound C-1167, (S)-N-((S)-1-(((S)-3-(4-methoxyphenyl)-1-(((S)-1-((R)-2-methyloxiran-2-yl)-1-oxo-3-phenylpropan-2-yl)amino)-1-oxopropan-2-yl)amino)-1-oxopropan-2-yl)tetrahydrofuran-2-carboxamide] displayed a solubility of 790 µg/mL (≈ 1.43 mM). The pIC50 was 6.81 in series [1] (setting [4]) and 6.28 in series [2].
Consider `C[C@H](NC(=O)CN1CCOCC1)C(=O)N[C@@H](Cc1ccncc1)C(=O)N[C@@H](Cc1ccccc1)C(=O)[C@@]1(C)CO1` [Compound C-1171], for which, in “Solubility pH 7”, the concentration in solution (solubility) came to 1680 µg/mL (≈ 3.05 mM). The results for the negative-log IC50 (pIC50) in series [1] (setting [5]), in series [3] and in series [2] (setting [6]) were 7.29, 7.20 and 6.60, respectively.
The matching figures for `COc1ccc(C[C@H](NC(=O)[C@@H](NC(=O)CN2CCOCC2)[C@@H](C)O)C(=O)N[C@@H](Cc2ccccc2)C(=O)[C@@]2(C)CO2)cc1` [Compound C-1173]: 2340 µg/mL (≈ 3.84 mM), 7.54, 7.47 and 6.94.
In the case of `C[C@H](NC(=O)CN1CCOCC1)C(=O)N[C@@H](Cc1cccnc1)C(=O)N[C@@H](Cc1ccccc1)C(=O)[C@@]1(C)CO1` [Compound C-1175], the solubility in the series “Solubility pH 7” stood at 2480 µg/mL (≈ 4.49 mM). The values for the pIC50 in series [1] (setting [5]), in series [3] and in series [2] (setting [6]) were 6.97, 6.89 and 6.36, respectively.
For `COc1ccc(C[C@H](NC(=O)[C@H](C)NC(=O)NN2CCOCC2)C(=O)N[C@@H](Cc2ccccc2)C(=O)[C@@]2(C)CO2)cc1` [Compound C-1178] the same measures were 1190 µg/mL (≈ 2.05 mM), 6.29, 6.62 and 5.42.
In turn, `COc1ccc(C[C@H](NC(=O)[C@H](C)NC(=O)CC2COC2)C(=O)N[C@@H](Cc2ccccc2)C(=O)[C@@]2(C)CO2)cc1` [Compound C-1179] gave a solubility in “Solubility pH 7” of 1300 µg/mL (≈ 2.35 mM). The negative-log IC50 (pIC50) in series [1] (setting [5]) is 6.92; in series [2] (setting [6]), 6.28.
In “Solubility pH 7”, `COc1ccc(C[C@H](NC(=O)[C@H](C)NC(=O)CN2CCOCC2)C(=O)N[C@@H](Cc2cccc(F)c2)C(=O)[C@@]2(C)CO2)cc1` [Compound C-1180] gave a solubility of 1380 µg/mL (≈ 2.31 mM). The negative logarithm of the IC50 (pIC50) was 7.68 in series [1] (setting [5]), 7.59 in series [3] and 6.51 in series [2] (setting [6]).
The compound `COc1ccc(C[C@H](NC(=O)[C@@H](C)NC(=O)[C@H]2CC[C@@H](O)CC2)C(=O)N[C@@H](Cc2ccccc2)C(=O)[C@@]2(C)CO2)cc1` [Compound C-1187] yielded a solubility in “Solubility pH 7” of 130 µg/mL (≈ 0.225 mM). Also, the pIC50 is 7.98 in series [1] (setting [5]) and 7.36 in series [2] (setting [6]).
As for `COc1ccc(C[C@H](NC(=O)[C@@H](C)NC(=O)C2CCCCC2)C(=O)N[C@@H](Cc2ccccc2)C(=O)[C@@]2(C)CO2)cc1` [Compound C-1188], the concentration in solution in the series “Solubility pH 7” (solubility) came to 12.1 µg/mL (≈ 0.0215 mM). Moreover, the negative-log IC50 (pIC50) in series [1] (setting [5]) was 7.53; in series [2] (setting [6]), 6.73.
As for `COc1ccc(C[C@H](NC(=O)[C@@H](C)NC(=O)C2CCCC2)C(=O)N[C@@H](Cc2ccccc2)C(=O)[C@@]2(C)CO2)cc1` [Compound C-1189], in “Solubility pH 7”, the solubility amounted to 22.7 µg/mL (≈ 0.0413 mM). Also, the pIC50 in series [1] (setting [5]) was 7.23; in series [2] (setting [6]), 6.32.
`COc1ccc(C[C@H](NC(=O)[C@@H](C)NC(=O)[C@H]2CC[C@H](O)CC2)C(=O)N[C@@H](Cc2ccc(C)cc2)C(=O)[C@@]2(C)CO2)cc1` [Compound C-1190]: the solubility in “Solubility pH 7” stood at 457 µg/mL (≈ 0.769 mM). Further, the values for the pIC50 in series [1] (setting [5]) and in series [2] (setting [6]) were 7.78 and 6.69, respectively.
The matching figures for `COc1ccc(C[C@H](NC(=O)[C@@H](C)NC(=O)[C@H]2CC[C@H](O)CC2)C(=O)N[C@@H](Cc2ccc(O)cc2)C(=O)[C@@]2(C)CO2)cc1` [Compound C-1191]: 4250 µg/mL (≈ 7.13 mM), 7.61 and 6.17.
For `COC[C@H](NC(=O)CN1CCOCC1)C(=O)N[C@@H](Cc1ccc(OC)cc1)C(=O)N[C@@H](Cc1ccccc1)C(=O)[C@@]1(C)CO1` [Compound C-1220], in series [3], the negative-log IC50 (pIC50) is 7.96.
In turn, `C[C@H](NC(=O)CN1CCOCC1)C(=O)N[C@@H](CC1=CCCCC1)C(=O)N[C@@H](Cc1ccccc1)C(=O)[C@@]1(C)CO1` [Compound C-1227] registered a solubility in the series “Solubility pH 7” of 1980 µg/mL (≈ 3.56 mM). In series [3], the pIC50 was 6.19.
For `COC[C@H](NC(=O)[C@H](C)NC(=O)CN1CCOCC1)C(=O)N[C@@H](Cc1ccccc1)C(=O)[C@@]1(C)CO1` [Compound C-1234], the pIC50 in series [3] was 5.82.
For the compound `C[C@H](NC(=O)CN1CCOCC1)C(=O)N[C@@H](CC1CCCCC1)C(=O)N[C@@H](Cc1ccccc1)C(=O)[C@@]1(C)CO1` [Compound C-1235], the pIC50 in series [3] was 6.41.
